For two compounds, Kd results are on record in patent publication US11345912B2, “Directed evolution of multivalent glycopeptides that tightly bind to target proteins” (Brandeis University, priority 2013, dated 2022).

The target of this assay is 2G12. The experiment in a line: BioLayer Interferometry (BLI) of 2G12 binding to surface-immobilized synthetic glycopeptide. Conditions: Table 6; evaluated by BLI, material prepared synthetically. As to the method:
Biotinylation of 10F2 glycopeptide and determination of 2G12 binding by BLI (BioLayer Interferometry): 200 μg 10F2 glycopeptide in 5.5 μL water was treated with […] of 50 mM TCEP.HCl/1M Tris-HCl buffer, pH 7.8, under argon, using the same inert gas setup employed in the click procedure. After 4.5 h, the reaction mixture was injected into HPLC (Waters Symmetry, 300 C4, 5 μm, 4.6×250 mm, 1 mL/min, 2-42% over 60 min, retention time 46.8 min).
The 2G12 binding of the resulting biotinylated glycopeptide 3 was determined using a BLItz instrument (Fortebio). Biotin-10F2 was loaded (120 sec) onto a streptavidin biosensor as a 500 nM solution in Buffer 1 (20 mM Tris pH 7.5, 150 mM NaCl, 2 mM MgSO4, 0.20 mg/mL BSA, 0.02% Tween-20). The sensor was washed with Buffer 1 for 60 sec, after which time the net response due to loading was observed as 0.2 nm. The sensor was then equilibrated with Buffer 2 (20 mM Tris pH 7.5, 150 mM NaCl, 2 mM MgSO4, 2.0 mg/mL BSA, 0.1% v/v Tween-20) for 90 sec. 2G12 (prepared in Buffer 2) was associated at several concentrations (0.5, 1, 2, 4, 8, 16, 32 nM, in random order) for 600 sec, followed by dissociation into blank Buffer 2 for 600 sec. […]
(Biolayer interferometry detects binding as a change in optical thickness at a sensor tip.)

pKd: −log10 of the molar value.

As for `CC[C@H](C)[C@H](NC(=O)[C@@H](NC(=O)[C@@H](NC(=O)[C@H](Cc1c[nH]cn1)NC(=O)[C@H](CC(N)=O)NC(=O)[C@H](CC(=O)O)NC(=O)[C@H](CCc1cn(C2CCC(OC3O[C@H](CO[C@H]4O[C@H](CO[C@H]5O[C@H](CO)[C@@H](O)[C@H](O)[C@@H]5O[C@H]5O[C@H](CO)[C@@H](O)[C@H](O)[C@@H]5O)[C@@H](O)[C@H](O[C@H]5O[C@H](CO)[C@@H](O)[C@H](O)[C@@H]5O[C@H]5O[C@H](CO)[C@@H](O)[C@H](O)[C@@H]5O)[C@@H]4O)[C@@H](O)[C@H](O[C@H]4O[C@H](CO)[C@@H](O)[C@H](O)[C@@H]4O[C@H]4O[C@H](CO)[C@@H](O)[C@H](O)[C@@H]4O[C@H]4O[C@H](CO)[C@@H](O)[C@H](O)[C@@H]4O)[C@@H]3O)CC2)nn1)NC(=O)[C@@H](NC(=O)[C@H](CCCCN)NC(=O)[C@H](CCC(=O)O)NC(=O)[C@H](CCCNC(=N)N)NC(=O)[C@H](CCCCN)NC(=O)[C@H](C)NC(=O)[C@H](CC(N)=O)NC(=O)[C@@H](NC(=O)[C@H](CCCCN)NC(=O)[C@@H](NC(=O)[C@H](C)NC(=O)[C@H](CCc1cn(C2CCC(OC3O[C@H](CO[C@H]4O[C@H](CO[C@H]5O[C@H](CO)[C@@H](O)[C@H](O)[C@@H]5O[C@H]5O[C@H](CO)[C@@H](O)[C@H](O)[C@@H]5O)[C@@H](O)[C@H](O[C@H]5O[C@H](CO)[C@@H](O)[C@H](O)[C@@H]5O[C@H]5O[C@H](CO)[C@@H](O)[C@H](O)[C@@H]5O)[C@@H]4O)[C@@H](O)[C@H](O[C@H]4O[C@H](CO)[C@@H](O)[C@H](O)[C@@H]4O[C@H]4O[C@H](CO)[C@@H](O)[C@H](O)[C@@H]4O[C@H]4O[C@H](CO)[C@@H](O)[C@H](O)[C@@H]4O)[C@@H]3O)CC2)nn1)NC=O)[C@@H](C)O)[C@@H](C)O)[C@@H](C)O)C(C)C)[C@@H](C)O)C(=O)N[C@@H](CCc1cn(C2CCC(OC3O[C@H](CO[C@H]4O[C@H](CO[C@H]5O[C@H](CO)[C@@H](O)[C@H](O)[C@@H]5O[C@H]5O[C@H](CO)[C@@H](O)[C@H](O)[C@@H]5O)[C@@H](O)[C@H](O[C@H]5O[C@H](CO)[C@@H](O)[C@H](O)[C@@H]5O[C@H]5O[C@H](CO)[C@@H](O)[C@H](O)[C@@H]5O)[C@@H]4O)[C@@H](O)[C@H](O[C@H]4O[C@H](CO)[C@@H](O)[C@H](O)[C@@H]4O[C@H]4O[C@H](CO)[C@@H](O)[C@H](O)[C@@H]4O[C@H]4O[C@H](CO)[C@@H](O)[C@H](O)[C@@H]4O)[C@@H]3O)CC2)nn1)C(=O)N[C@@H](CCCNC(=N)N)C(=O)N[C@@H](CO)C(=O)N[C@H](C(=O)N1CCC[C@H]1C(=O)N[C@@H](Cc1c[nH]c2ccccc12)C(=O)N[C@@H](Cc1ccc(O)cc1)C(=O)N[C@H](C(=O)N[C@@H](Cc1ccc(O)cc1)C(=O)N[C@@H](CCCNC(=N)N)C(=O)N[C@@H](Cc1c[nH]c2ccccc12)C(=O)N[C@@H](CC(C)C)C(=O)N1CCC[C@H]1C(=O)N[C@@H](CC(N)=O)C(=O)NCC(=O)N[C@@H](CO)C(=O)NCC(=O)N[C@@H](CO)C(=O)NCC(=O)N[C@@H](CSC1CC(=O)N(CCC(=O)NCCOCCOCCNC(=O)CCCC[C@@H]2SC[C@@H]3NC(=O)N[C@@H]32)C1=O)C(=O)N[C@@H](C)C(=O)O)[C@@H](C)O)[C@@H](C)CC` (some centres unmarked) [Clone 10V1-C7A, XATKTNAKREKTXDNHVTIXRSIPWYTYRWLPN], the pKd (as a rule, −log10 of the Kd, conventionally taken in molar units) is 8.36.
In turn, `CC[C@H](C)[C@H](NC(=O)[C@@H](NC(=O)[C@@H](NC(=O)[C@H](Cc1c[nH]cn1)NC(=O)[C@H](CC(N)=O)NC(=O)[C@H](CC(=O)O)NC(=O)[C@H](CCc1cn(C2CCC(OC3O[C@H](CO[C@H]4O[C@H](CO[C@H]5O[C@H](CO)[C@@H](O)[C@H](O)[C@@H]5O[C@H]5O[C@H](CO)[C@@H](O)[C@H](O)[C@@H]5O)[C@@H](O)[C@H](O[C@H]5O[C@H](CO)[C@@H](O)[C@H](O)[C@@H]5O[C@H]5O[C@H](CO)[C@@H](O)[C@H](O)[C@@H]5O)[C@@H]4O)[C@@H](O)[C@H](O[C@H]4O[C@H](CO)[C@@H](O)[C@H](O)[C@@H]4O[C@H]4O[C@H](CO)[C@@H](O)[C@H](O)[C@@H]4O[C@H]4O[C@H](CO)[C@@H](O)[C@H](O)[C@@H]4O)[C@@H]3O)CC2)nn1)NC(=O)[C@@H](NC(=O)[C@H](CCCCN)NC(=O)[C@H](CCC(=O)O)NC(=O)[C@H](CCCNC(=N)N)NC(=O)[C@H](CCCCN)NC(=O)[C@H](CO)NC(=O)[C@H](CC(N)=O)NC(=O)[C@@H](NC(=O)[C@H](CCCCN)NC(=O)[C@@H](NC(=O)[C@H](C)NC(=O)[C@H](CCc1cn(C2CCC(OC3O[C@H](CO[C@H]4O[C@H](CO[C@H]5O[C@H](CO)[C@@H](O)[C@H](O)[C@@H]5O[C@H]5O[C@H](CO)[C@@H](O)[C@H](O)[C@@H]5O)[C@@H](O)[C@H](O[C@H]5O[C@H](CO)[C@@H](O)[C@H](O)[C@@H]5O[C@H]5O[C@H](CO)[C@@H](O)[C@H](O)[C@@H]5O)[C@@H]4O)[C@@H](O)[C@H](O[C@H]4O[C@H](CO)[C@@H](O)[C@H](O)[C@@H]4O[C@H]4O[C@H](CO)[C@@H](O)[C@H](O)[C@@H]4O[C@H]4O[C@H](CO)[C@@H](O)[C@H](O)[C@@H]4O)[C@@H]3O)CC2)nn1)NC=O)[C@@H](C)O)[C@@H](C)O)[C@@H](C)O)C(C)C)[C@@H](C)O)C(=O)N[C@@H](CCc1cn(C2CCC(OC3O[C@H](CO[C@H]4O[C@H](CO[C@H]5O[C@H](CO)[C@@H](O)[C@H](O)[C@@H]5O[C@H]5O[C@H](CO)[C@@H](O)[C@H](O)[C@@H]5O)[C@@H](O)[C@H](O[C@H]5O[C@H](CO)[C@@H](O)[C@H](O)[C@@H]5O[C@H]5O[C@H](CO)[C@@H](O)[C@H](O)[C@@H]5O)[C@@H]4O)[C@@H](O)[C@H](O[C@H]4O[C@H](CO)[C@@H](O)[C@H](O)[C@@H]4O[C@H]4O[C@H](CO)[C@@H](O)[C@H](O)[C@@H]4O[C@H]4O[C@H](CO)[C@@H](O)[C@H](O)[C@@H]4O)[C@@H]3O)CC2)nn1)C(=O)N[C@@H](CCCNC(=N)N)C(=O)N[C@@H](CO)C(=O)N[C@H](C(=O)N1CCC[C@H]1C(=O)N[C@@H](Cc1c[nH]c2ccccc12)C(=O)N[C@@H](Cc1ccc(O)cc1)C(=O)N[C@H](C(=O)N[C@@H](Cc1ccc(O)cc1)C(=O)N[C@@H](CCCNC(=N)N)C(=O)N[C@@H](Cc1c[nH]c2ccccc12)C(=O)N[C@@H](CC(C)C)C(=O)N1CCC[C@H]1C(=O)N[C@@H](CC(N)=O)C(=O)NCC(=O)N[C@@H](CO)C(=O)NCC(=O)N[C@@H](CO)C(=O)NCC(=O)N[C@@H](CS)C(=O)N[C@@H](C)C(=O)O)[C@@H](C)O)[C@@H](C)CC` (some centres unmarked) [Clone 10V1-C7S, XATKTNSKREKTXDNHVTIXRSIPWYTYRWLPN] showed a pKd of 8.25.
